Test [1] has as its system α1β3γ2L GABAA receptors, bulky mutation at α1A291. Also noted: method as in PMID 30696720; key: +: Mutant-function studies are deemed positive when bulky mutations (mostly tryptophans) at the site significantly reduce positive modulation by anesthetics; -: Negative results are indicated by “–“ symbols. The following applies: cited from earlier work.
Test [2] relates to α1β3γ2L GABAA receptors, bulky mutation at γ2I242. Details: key to Mutant-function result, γ2– (M1) I242: +: Mutant-function studies are deemed positive when bulky mutations (mostly tryptophans) at the site significantly reduce positive modulation by anesthetics; -: Negative results are indicated by “–“ symbols. The following applies: cited from earlier work.
Test [3] relates to α1β3γ2L GABAA receptors, bulky mutation at β3N265. Details: method as in PMID 30696720, PMID 32247113; key: +: Mutant-function studies are deemed positive when bulky mutations (mostly tryptophans) at the site significantly reduce positive modulation by anesthetics; -: Negative results are indicated by “–“ symbols. The following applies: cited from earlier work.
Test [4] has as its system α1β3γ2L GABAA receptors, bulky mutation at γ2S301. Also noted: method as in PMID 30696720; key: +: Mutant-function studies are deemed positive when bulky mutations (mostly tryptophans) at the site significantly reduce positive modulation by anesthetics; -: Negative results are indicated by “–“ symbols. The conditions noted are these: cited from earlier work.
The test system of test [5] is α1β3γ2L GABAA receptors, bulky mutation at β3M227. Also noted: key: +: Mutant-function studies are deemed positive when bulky mutations (mostly tryptophans) at the site significantly reduce positive modulation by anesthetics; -: Negative results are indicated by “–“ symbols. The following applies: cited from earlier work.
For test [6], the system named is α1β3γ2L GABAA receptors, bulky mutation at β3M286. Also noted: method as in PMID 30696720; key: +: Mutant-function studies are deemed positive when bulky mutations (mostly tryptophans) at the site significantly reduce positive modulation by anesthetics; -: Negative results are indicated by “–“ symbols. The following applies: cited from earlier work.
The test system of test [7] is α1β3γ2L GABAA receptors, bulky mutation at γ2S280. Details: method as in PMID 30696720, PMID 32247113; key: +: Mutant-function studies are deemed positive when bulky mutations (mostly tryptophans) at the site significantly reduce positive modulation by anesthetics; -: Negative results are indicated by “–“ symbols. The conditions noted are these: cited from earlier work.

The subject of test [8] is α1β3γ2L GABAA receptors, bulky mutation at α1S270. Details: key to Mutant-function result, α1+ (M2, M3) S270: +: Mutant-function studies are deemed positive when bulky mutations (mostly tryptophans) at the site significantly reduce positive modulation by anesthetics; -: Negative results are indicated by “–“ symbols. The conditions noted are these: cited from earlier work.

Test [9] has as its target T1, α1β3L231Cγ2L GABAA receptors (Homo sapiens, UniProt P14867+P18507+P28472, L256C).
T1 construct: expressed in transfected cells; host or cells: Xenopus oocytes injected with capped mRNA, 1α:1β:5γ
Kind of test: Drug protection from pCMBS modification (SCAMP). It counts as cell-based. Details: key: +: SCAMP is Substituted Cysteine Modification and Protection and is positive when adding anesthetic to cysteine modifier significantly reduces persistent post-exposure effects due to covalent modification; -: Negative results are indicated by “–“ symbols. The following applies: results of this study (*); some cells also cite [9]. The protocol: (§1) Experiments were performed in ND-96 buffer at room temperature (20–22°C). Oocytes were placed in a low-volume (30µl) flow chamber and impaled with borosilicate microelectrodes filled with 3M KCl (resistance 0.5–3 MΩ) and voltage-clamped at −50 mV (model OC-725C; Warner Instruments, Hamden, CT, USA). Superfusate solutions in ND-96 were delivered at 2 ml/min from glass syringe reservoirs via computer-controlled valves (VC-8; Warner Instruments), a micro-manifold (ALA-VM8; ALA Scientific Instruments, Farmingdale, NY, USA), and PTFE tubing. Currents were digitized at 200 Hz on a computer running ClampEx v8.0 software (Molecular Devices, San Jose, CA, USA). Digitized traces were filtered with a 10-Hz low-pass Bessel function, leak corrected and analyzed for peak amplitude off-line using Clampfit v8 software (Molecular Devices).
(§2) Drug protection from pCMBS modification was assessed under pCMBS exposure conditions that produced approximately half of the maximal modification ratio for each mutant receptor, and a least a value of 3. This approach balanced the magnitude of functional modification signals (smaller with less pCMBS exposure) against the challenge of using a reversibly bound ligand to competitively block an irreversible covalent cysteine-modifying reaction. […] Each oocyte was used in a single SCAMP experiment. […] Etomidate was used as a positive control for anesthetic protection in α1M236C and β3M286C mutants and as a negative control in α1S270C, α1A291C, β3L231C, γ2S301C, γ2I242C, and γ2L246C mutants. R-mTFD-MPAB was used as a positive control in α1S270C, α1A291C, β3L231C, and γ2LS301C mutants and as a negative control in α1M236C and β3M286C mutants. For each cysteine mutant and protective drug combination, five oocytes were studied.
(§3) Non-linear least squares fits and statistical analyses were performed in Prism 10.4.0. (GraphPad Software, San Diego, CA, USA). […] Protection (steric inhibition of pCMBS modification) was inferred when anesthetics produced significant reductions in modification ratios relative to control (no anesthetic) values. The statistical significance threshold was p < 0.05.

Test [10] deals with T2, α1A291Cβ3γ2L GABAA receptors (Homo sapiens, UniProt P14867+P18507+P28472, A318C).
T2 construct: expressed in transfected cells; host or cells: Xenopus oocytes injected with capped mRNA, 1α:1β:5γ
Kind of test: Drug protection from pCMBS modification (SCAMP). It counts as cell-based. The conditions noted are these: for modification ratio with anesthetic present, single oocyte example (Fig 2): 3 mM GABA + 10 µM pCMBS for 90 s plus […] etomidate. On the procedure:
as §1, §2, §3

The target in test [11] is T3, α1β3γ2I242C GABAA receptors (Homo sapiens, UniProt P14867+P18507+P28472, I281C).
T3 construct: expressed in transfected cells; host or cells: Xenopus oocytes injected with capped mRNAs mixed 1α:1β:5γ
Nature of the test: Drug protection from pCMBS modification (SCAMP). The following applies: for SCAMP result, γ2– (M1) I242: results of this study, etomidate cell also cites [9]. The test is classed as cell-based. Also noted: key to SCAMP result, γ2– (M1) I242: +: Mutant-function studies are deemed positive when bulky mutations (mostly tryptophans) at the site significantly reduce positive modulation by anesthetics; -: Negative results are indicated by “–“ symbols. The protocol:
as §1, §2
Non-linear least squares fits and statistical analyses were performed in Prism 10.4.0. (GraphPad Software, San Diego, CA, USA). […] Protection (steric inhibition of pCMBS modification) was inferred when anesthetics produced significant reductions in modification ratios relative to control (no anesthetic) values. […]

Where [12] appears, read: α1A291Cβ3γ2L, 8 µM R-mTFD-MPAB or 10 µM pTFD-di-iPr-BnOH.

The values that follow come from PMC12591484 (PLOS One, 2025).

T3 sequence (P14867 28-456): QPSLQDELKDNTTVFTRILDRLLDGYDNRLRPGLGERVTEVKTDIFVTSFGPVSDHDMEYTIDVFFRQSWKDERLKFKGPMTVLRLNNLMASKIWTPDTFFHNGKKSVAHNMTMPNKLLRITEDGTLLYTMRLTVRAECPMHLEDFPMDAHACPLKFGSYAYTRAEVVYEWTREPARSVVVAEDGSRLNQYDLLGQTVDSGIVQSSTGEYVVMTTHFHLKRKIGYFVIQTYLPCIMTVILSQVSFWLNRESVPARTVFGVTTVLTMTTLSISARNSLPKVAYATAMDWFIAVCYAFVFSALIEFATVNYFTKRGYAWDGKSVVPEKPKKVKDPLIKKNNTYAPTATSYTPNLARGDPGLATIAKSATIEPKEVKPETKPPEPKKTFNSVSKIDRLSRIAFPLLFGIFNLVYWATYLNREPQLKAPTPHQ
T3 sequence (P28472 26-473): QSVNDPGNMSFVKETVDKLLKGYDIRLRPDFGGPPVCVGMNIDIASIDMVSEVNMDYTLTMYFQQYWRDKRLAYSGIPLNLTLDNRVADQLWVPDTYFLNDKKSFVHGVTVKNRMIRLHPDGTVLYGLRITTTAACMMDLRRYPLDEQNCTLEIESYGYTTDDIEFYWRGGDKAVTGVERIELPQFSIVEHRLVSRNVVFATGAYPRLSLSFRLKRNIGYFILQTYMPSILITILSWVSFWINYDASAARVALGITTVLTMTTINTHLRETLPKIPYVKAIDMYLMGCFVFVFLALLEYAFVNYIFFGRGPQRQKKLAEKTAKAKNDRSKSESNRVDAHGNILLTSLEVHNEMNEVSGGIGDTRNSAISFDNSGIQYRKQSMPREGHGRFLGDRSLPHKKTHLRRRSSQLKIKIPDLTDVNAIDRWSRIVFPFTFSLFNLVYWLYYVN
T3 sequence (P18507 40-475 I281C): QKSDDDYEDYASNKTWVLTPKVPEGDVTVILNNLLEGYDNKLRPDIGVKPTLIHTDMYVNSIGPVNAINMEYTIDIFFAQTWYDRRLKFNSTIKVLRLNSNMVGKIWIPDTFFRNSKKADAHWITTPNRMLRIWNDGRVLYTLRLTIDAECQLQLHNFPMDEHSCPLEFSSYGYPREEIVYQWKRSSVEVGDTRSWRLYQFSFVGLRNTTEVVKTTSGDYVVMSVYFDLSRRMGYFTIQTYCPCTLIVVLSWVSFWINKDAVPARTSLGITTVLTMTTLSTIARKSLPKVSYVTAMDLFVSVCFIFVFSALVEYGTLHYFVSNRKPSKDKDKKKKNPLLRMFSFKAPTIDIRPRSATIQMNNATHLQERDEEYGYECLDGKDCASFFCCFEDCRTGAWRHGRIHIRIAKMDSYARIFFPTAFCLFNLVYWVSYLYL
T2 sequence (P14867 28-456 A318C): as the sequence (P14867 28-456) above, with A291C counted along it
T2 sequence (P28472 26-473): as the sequence (P28472 26-473) above
T2 sequence (P18507 40-475): as the sequence (P18507 40-475 I281C) above, with C242I counted along it
T1 sequence (P14867 28-456): as the sequence (P14867 28-456) above
T1 sequence (P28472 26-473 L256C): as the sequence (P28472 26-473) above, with L231C counted along it
T1 sequence (P18507 40-475): as the sequence (P18507 40-475 I281C) above, with C242I counted along it

As to `C=CCC1(c2cccc(C3(C(F)(F)F)N=N3)c2)C(=O)NC(=O)N(C)C1=O` (centres unmarked) [R-mTFD-MPAB, R-5-allyl-1-methyl-5-(m-trifluoromethyl-diazirynylphenyl) barbituric acid], in [1], the “Mutant-function result, α1+ (M2, M3) A291” value is “+^[13]”. In addition, the “Mutant-function result, γ2– (M1) I242” value in [2] was “-^[9, 15]”. For the same compound, in test [3], the “Mutant-function result, β3+ (M2, M3) N265” value is “-^[13, 15]”. Besides, in test [4], the “Mutant-function result, γ2+ (M2, M3) S301” value was “+^[13]”. Moreover, in test [5], the “Mutant-function result, β3– (M1) M227” value was “+^[9, 15],”. The “Mutant-function result, β3+ (M2, M3) M286” value in test [6] is “-^[13]”. Besides, the “Mutant-function result, γ2+ (M2, M3) S280” value in test [7] was “+^[13, 15]”. Moreover, the “Mutant-function result, α1+ (M2, M3) S270” value in test [8] was “+^[13, 15]”. Further, in [9], the “SCAMP result, β3– (M1) L231” value is “+^[9], *”. Besides, the “protection from pCMBS modification (significant reduction of modification ratio vs control, p < 0.05)” value in test [10] (α1A291C (α+), pCMBS 10 µM x 90 s, […] etomidate, 8 µM R-mTFD-MPAB or 10 µM pTFD-di-iPr-BnOH, n = 5) was “protection was inferred”. Moreover, the “modification ratio with anesthetic present, single oocyte example (Fig 2)” value in test [10] (setting [12]) came to 2.1. For the same compound, the “modification ratio lower than control” value in [10] (α1A291Cβ3γ2L, single oocyte examples of Fig 2, control modification ratio 4.0) is given as 47%.
Turning to `CCOC(=O)c1cncn1[C@H](C)c1ccccc1` [etomidate, R-etomidate], the “Mutant-function result, α1+ (M2, M3) A291” value in [1] is “-^[13]”. Also, the “Mutant-function result, γ2– (M1) I242” value in test [2] was “-^[9, 15]”. In addition, the “Mutant-function result, β3+ (M2, M3) N265” value in [3] is “+^[13, 15]”. The “Mutant-function result, γ2+ (M2, M3) S301” value in test [4] was “-^[13]”. In addition, the “Mutant-function result, β3– (M1) M227” value in test [5] was “-^[9, 15]”. For the same compound, the “Mutant-function result, β3+ (M2, M3) M286” value in test [6] was “+^[13]”. The “Mutant-function result, γ2+ (M2, M3) S280” value in test [7] was “-^[13, 15]”. In addition, in test [11], the “SCAMP result, γ2– (M1) I242” value was “-^[9],6”. Moreover, in [11] (γ2I242C (γ–), pCMBS 100 µM x 30 s, […] etomidate or 10 µM pTFD-di-iPr-BnOH, n = 5), the “protection from pCMBS modification (significant reduction of modification ratio vs control, p < 0.05)” value is “no protection was inferred”. In test [8], the “Mutant-function result, α1+ (M2, M3) S270” value is “-^[13, 15]”. For the same compound, in test [10] (setting [12]), the “modification ratio with anesthetic present, single oocyte example (Fig 2)” value was found to be 3.8.
Regarding `CC(C)c1cc(C2(C(F)(F)F)N=N2)cc(C(C)C)c1CO` [pTFD-di-iPr-BnOH], the “Mutant-function result, γ2– (M1) I242” value in test [2] was “+^[15]”. Further, the “effect of mutation on receptor modulation by the anesthetic” value in [2] (γ2I242W mutation) and in test [8] (α1S270I mutation) was “significantly reduced” in each case. Moreover, in [3], the “Mutant-function result, β3+ (M2, M3) N265” value was “-^[15]”. Also, the “Mutant-function result, β3– (M1) M227” value in test [5] was “+^[15]”. Also, in test [7], the “Mutant-function result, γ2+ (M2, M3) S280” value was “-^[15]”. Moreover, in test [11], the “SCAMP result, γ2– (M1) I242” value is “-*”. The “Mutant-function result, α1+ (M2, M3) S270” value in [8] is “+^[15]”. Also, the “SCAMP result, β3– (M1) L231” value in [9] is “+*”.
